Experimental findings from PubChem BioAssay (NCI) are described below.

Holding throughout (experiment): NCI tumour cell line growth inhibition, 48 h
Assay [1] concerns MOLT-4 leukemia.
Assay [2] has as its system OVCAR-5 ovarian.
Assay [3] concerns 786-0 renal.
Assay [4] concerns M14 melanoma.
Assay [5] relates to RPMI-8226 leukemia.
The subject of assay [6] is MALME-3M melanoma.
For assay [7], the system named is SF-295 CNS.
Assay [8] concerns SK-OV-3 ovarian.
Assay [9] deals with A498 renal.
Assay [10] deals with HOP-62 NSCLC.

Values joined by “and” are separate entries in the source; they are usually repeats but may differ in a detail not shown here. Identical values can stand only once.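 Step 1: Grow cells in 96-well plates. Step 2: Expose to compound for 48 hours at 5 concentrations. Step 3: Interpolate endpoints linearly; if unreached, use highest concentration. Here, GI50 denotes the concentration required for 50% inhibition of growth. At the TGI there is no net growth.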

Turning to `O=C1c2cccnc2C(=O)c2c1c(C(=O)OCCc1ccccn1)c1ccccn21`, the GI50 was 1.09 µM in [1]; 0.497 µM in assay [2]; 0.252 µM in [3]; 0.0262 µM in [4]; 0.219 µM in assay [5]; 0.0613 µM in assay [6]. The GI50 in [7] is 0.342 µM; in assay [8], 0.0539 µM; in assay [9], less than 0.0378 µM; in [10] it was less than 0.01 µM. For the same compound, the TGI was greater than 36.7 µM in [1]; 10.5 µM in assay [2]; 1.26 µM in [3]; 0.33 µM in [4]; 0.924 µM in assay [6]; 1.77 µM in assay [7]. The TGI in [8] amounted to 1.17 µM; in [9], 0.824 µM; in assay [10], 0.326 µM.

`CCOC(=O)c1cn(CC)c2ccc3ccsc3c2c1=O`: the TGI in [1], in [2], in assay [3], in assay [4], in assay [5] and in [6] was greater than 100 µM in each case. Also, the TGI in assay [7], in [8], in assay [9] and in assay [10] was greater than 100 µM in each case.

As for `CC(C)(CN1CCCCC1)C(=O)CC(SCCN)c1ccc(Cl)cc1` (stereo not given), the TGI in [1] is 4.72 µM; in assay [2], 13.2 µM; in [3], 3.21 µM; in assay [4], 3.63 µM; in [5], 3.86 µM; in [6], 11.6 µM. In addition, the TGI in assay [7] was determined as 12.4 µM; in [8] it was 7.83 µM; in assay [9], 6.65 µM; in [10], 12.8 µM.

In the case of `COc1ccc(/C=C/C(=O)c2ccc(Nc3nc(Nc4ccc(F)cc4)nc(Nc4ccc(Cl)cc4)n3)cc2)cc1`, the GI50 is 11.9 µM in [1]; greater than 100 µM in assay [2]; greater than 100 µM in [3]; greater than 100 µM in assay [4]; 6.91 µM in assay [5]; greater than 100 µM in assay [6]. Also, the GI50 in assay [7], in [8], in [9] and in assay [10] was greater than 100 µM each time. The TGI in [1], in assay [2], in assay [3], in [4], in assay [5] and in assay [6] was greater than 100 µM each time. Also, the TGI in assay [7], in [8], in assay [9] and in [10] was greater than 100 µM in each case.

Take `CCc1nc2ccccc2c(=O)n1/N=C(\N=Nc1ccc(Cl)cc1)c1ccccc1`: the TGI in [1] is greater than 100 µM; in [2], greater than 100 µM; in [3], 59.2 µM; in [4] it was greater than 100 µM; in assay [5], greater than 100 µM; in [6] it was 90 µM. Also, the TGI in assay [7] is 53.6 µM; in assay [8], 62 µM; in assay [9] it was greater than 100 µM; in assay [10], 69.4 µM.

In the case of `CCOc1cc(/C=C/C(=O)C(C(=O)/C=C/c2ccc(OC(=O)CNc3nnc(C)s3)c(OCC)c2)C(=O)CNc2nnc(C)s2)ccc1OC(=O)CNc1nnc(C)s1`, the GI50 was 0.681 µM in [1]; 2.43 µM in [2]; 2.16 µM in [3]; 2.4 µM in assay [4]; 0.34 µM in assay [5]; 2.36 µM in assay [6]. Also, the GI50 in [7] is 3.08 µM; in assay [8] it was 4.15 µM; in assay [9], 1.8 µM; in assay [10], 3.52 µM. The TGI is 6.56 µM in assay [1]; 5.41 µM in assay [2]; 5.98 µM in assay [3]; 10 µM in [4]; greater than 100 µM in assay [5]; 7.09 µM in assay [6]. Also, the TGI in assay [7] came to 10.7 µM; in assay [8], 18.2 µM; in assay [9], 3.64 µM; in [10], 11.8 µM.

For the compound `O=C(/C=C/c1nnc2n(Cc3ccccc3)c(=O)c3c4c(sc3n12)CCCC4)c1ccccc1`, the GI50 in [1] is 0.622 µM and 0.248 µM; in assay [2], greater than 100 µM; in assay [3] it was 1.56 µM and 2.36 µM; in assay [5], 0.177 µM and 0.254 µM; in assay [6], greater than 100 µM; in assay [8], greater than 100 µM. The GI50 in [9] was greater than 100 µM. In addition, the TGI was 0.769 µM in [1]; greater than 100 µM in assay [2]; greater than 100 µM in [4]; 0.817 µM and 0.738 µM in assay [5]; greater than 100 µM in [6]; greater than 100 µM in assay [7]. The TGI in [8], in [9] and in [10] was greater than 100 µM each time.
